Source: patent US20250388542A1, “ANALOGUES OF PENTAMIDINE AND USES THEREFOR” (Auransa Inc., priority 2018, published 2025)
“And” between values parts separate entries of the source, which are not always exact repeats. Identical values can stand only once. “Also recorded” adds a separate entry of the source.

Tests used:
Human microsomal CL rate = format: in vitro ADME; conditions: human microsomes
[1] = tested on: Hep3B2.1-7-Luc liver orthotopic model; assay: Liver orthotopic in vivo analysis; conditions: for mean Total Flux: Q3D for a week then QD three weeks, day 28 post grouping; for Whole liver (with tumor) weights: individual animals 1-8; for Tumor sizes vs vehicle: nonparametric ANOVA followed by Kruskal-Wallis test; for Tumor sizes (signal intensity) vs vehicle: two-way ANOVA and Bonferroni post-test
Experimental: In this study, the in vivo therapeutic effect of Compound 1 on liver cancer was evaluated in an orthotopic mouse model using Hep3B2.1-7-Luc cell line. Three groups of orthotopic model in BALB/c nude mice were treated with vehicle, Compound 1 at 10 mg/kg, and Compound 1 at 20 mg/kg orally (p.o.) Q3D for a week followed by QD for three weeks. The mean Total Flux (photons/s/10^6) of the mice in vehicle control group reached 1223.01 photons/s/10^6 at day 28 post grouping. The mean Total Flux (photons/s/10^6) was 464.74 and 306.74 for Compound 1 (10 mg/kg) group and Compound 1 (20 mg/kg) group at day 28 post grouping.
A One-way ANOVA combined with Dunnett post-test was performed to compare the results of serum-derived blood chemistries (including ALT, AST, ALP, TP, ALB, UA, UREA, Glu, TC, TG, Ca, Mg, P, CK, LDH, GLB, A/G and CREA) among vehicle and treatment groups. A nonparametric ANOVA followed by Kruskal-Wallis test was performed to compare serum-derived blood chemistries (including ALT, AST and ALP) among vehicle and treatment groups.

[2] = tested on: COLO 205-Luc colon cancer tumor cells; conditions: mouse, in vivo
Experimental: Approximately 2.0× Luciferase stably expressing colon cancer tumor cells (COLO 205-Luc) cells suspended in 30 μl of DPBS were injected into cecum wall of BALB/c nude mice.
The animals were assigned into groups using an Excel-based randomization software performing stratified randomization based upon their bioluminescence intensity. Treatment was initiated according to the predetermined regimen as shown in the experimental design table.
Mice were administered compound 1 at 10 mg/k daily, 20 mg/kg daily, 10 mg/kg twice daily, 20 mg/kg twice daily, or 40 mg/kg daily.
The major efficacy endpoint was bioluminescence (intensity values and change from baseline). The surgically inoculated mice were weighed and intraperitoneally administered luciferin at a dose of 150 mg/kg. Ten minutes after the luciferin injection, the animals were pre-anesthetized with the mixture gas of oxygen and isoflurane. When the animals were in a complete anesthetic state, the mice were moved into the imaging chamber for bioluminescence measurements with an IVIS (Lumina II) imaging system. The bioluminescence of the whole animal body, including primary and metastatic tumors, was measured and recorded once per week.
Tumor Growth Inhibition (TGI) was calculated for each group using the formula: TGI (%)=[1−(Ti−T0)/(Vi−V0)]×100; Ti is the average tumor bioluminescence value of a treatment group on a given day, T0 is the average tumor bioluminescence value of the treatment group on day 0, Vi is the average tumor bioluminescence value of the vehicle control group on the same day with Ti, and V0 is the average tumor bioluminescence value of the vehicle group on day 0.
For comparison among three or more groups, a one-way ANOVA was performed. When a non-significant F-statistics (a ratio of treatment variance to the error variance) was obtained, comparisons between groups were carried out with Dunnett t(2-sided). All data were analyzed using SPSS 17.0. p<0.05 is considered to be statistically significant.

SMILES: N=C(N)c1ccc(OCCCCCOc2ccc(C(=N)N)nc2)cc1 [Compound 1, 5-(5-(4-carbamimidoylphenoxy)pentyloxy)picolinimidamide]
- microsomal CLint (Human microsomal CL rate): 13.6 µL/min/mg
- tolerability, body weight loss ([1]; 10 mg/kg and 20 mg/kg p.o.): well tolerated in both 10 mg/kg and 20 mg/kg groups with no obvious body weight loss; also recorded: well tolerated at both doses level tested
- anti-tumor effect compared to vehicle group (Total Flux) ([1]; 10 mg/kg p.o.): significant anti-tumor effect at day 8 to day 18 and day 28
- mean Total Flux ([1]; 10 mg/kg p.o.): 464.74 photons/s/10^6
- Whole liver (with tumor) weights ([1]; 10 mg/kg): 1.334 g and 2.415 g and 2.602 g and 2.280 g and 3.035 g and 1.817 g and 2.019 g and 2.311 g
- Tumor sizes vs vehicle ([1]; 10 mg/kg): no significant difference during the treatment days
- Tumor sizes (signal intensity) vs vehicle ([1]; 10 mg/kg): significant difference at day 25 and extremely significant difference at day 28
- anti-tumor effect compared to vehicle group (Total Flux) ([1]; 20 mg/kg p.o.): significant anti-tumor effect at day 8 to day 28
- mean Total Flux ([1]; 20 mg/kg p.o.): 306.74 photons/s/10^6
- in vivo anti-tumor activity (summary) ([1]; 20 mg/kg, day 25 and day 28): significant in vivo anti-tumor activity
- Whole liver (with tumor) weights ([1]; 20 mg/kg): 1.681 g and 2.243 g and 1.645 g and 2.012 g and 1.926 g and 1.610 g and 1.603 g and 2.260 g
- Tumor sizes vs vehicle ([1]; 20 mg/kg): significant difference at day 28 and extremely significant difference at day 25
- Tumor sizes (signal intensity) vs vehicle ([1]; 20 mg/kg): extremely significant difference at day 22 to day 28
- levels of liver injury/damage markers ALT and AST ([1]; serum, 10 mg/kg and 20 mg/kg): significant reduction in levels of liver injury/damage markers, i.e., ALT and AST, in a dose dependent manner
- deaths and morbidity [2]: no deaths and no morbidity
